From patent publication US11246896B2, “Tumor-specific adenovirus vectors and therapeutic uses” (priority 2015, dated 2022)

Tested on: RIN, MIN, β-TC1 (INSM1+ insulinomas)
Assay: Cell survival assay (MTS), INSM1-positive insulinoma cells
Format: cell-based, rat, mouse
Conditions: 200 μM GCV, no virus, RTC-1 cells
Experimental: FIGS. 13A-13D illustrate that the oncolytic virus in combination with Ad-INSM1p-HSV-tk increased efficacy of tumor cell killing. An MTS colorimetric assay was conducted to measure the cell survival with 3 insulinoma cell lines: RIN, MIN, β-TC1 (INSM1^+ insulinomas), and Panc-1 (INSM1^− pancreatic epithelioid carcinoma).
FIG. 13D is a graph illustrating cells treated with a combination of Ad-IMSM1p-HSV-tk and Ad-INSM1p-E1A-HSV-tk viruses. Cells were first treated with virus ranging from 0-100 MOI. […] Cell survival was measured by MTS colorimetric analysis at 490 nm. (n=6). […]
FIG. 14D is a graph illustrating cells treated with a combination of Ad-IMSM1p-HSV-tk and Ad-INSM1p-E1A-HSV-tk viruses. […] Cell survival was measured by MTS colorimetric analysis at 490 nm. […]
Cell survival assay. […] Afterwards, cell survival was assessed using […] 96® AQueous One Solution Cell Proliferation Assay (Promega, cat. no. G3582) and read at 490 nm on a Bio-Tek Synergy-HT Microplate Reader. Results were plotted as relative absorbance (relative to control sample with no virus) against increasing viral MOI. Samples were conducted in six wells each and statistical significance was determined using the students T-test with a threshold of p<0.05.
For a second experiment, the same viral constructs were used to infect cancer cells at a constant 50 MOI. […] After the treatment period, cell survival was assessed using […] […]

## Nc1nc(O)c2ncn(COC(CO)CO)c2n1 [GCV, 2-amino-9-{[(1,3-dihydroxypropan-2-yl)oxy]methyl}-6,9-dihydro-3H-purin-6-one]
  cell survival with GCV in the absence of adenovirus: decrease in survival
